Source: US20240373877A1, “ANIMAL FOOD PRODUCT AND METHOD AND APPARATUS THEREFOR” (priority 2023, published 2024)

Assays:
[1] = Beef cattle feed trial (weight gain, feed efficiency, BUN); type: in vivo, Weanling Angus-X steers
bovine rumen microbes = assay: Rumen microbial methane production in bovine rumen incubations; type: cell-based; settings: Yeast 2%, Monensin 10 μM
Protocol: THYM was also found to have a very pronounced inhibition of methane production by rumen microbes.
Bovine rumen microbes were incubated anaerobically for 24 hours at 39° C. with a silage: corn substrate. Bar A indicates basal control incubation, and bars B-G indicate additions. […] Monensin (Rumensin) was used as a positive inhibitory control. The hop acid content of the THYM samples in incubation bars E & F was 100 and 60 μg/ml for alpha and beta acids respectively, similar to the concentrations of alpha and beta acids, 100 μg/ml, added in bars B and C.

Structure (SMILES): CC[C@@]1([C@@H]2O[C@@H]([C@H]3O[C@@](O)(CO)[C@H](C)C[C@@H]3C)C[C@@H]2C)CC[C@H]([C@]2(C)CC[C@]3(C[C@H](O)[C@@H](C)[C@@H]([C@@H](C)[C@@H](OC)[C@H](C)C(=O)O)O3)O2)O1 [Monensin, monensin]
- Average Daily Gain ([1]; 9 weeks, monensin 200 mg/animal or 1% THYM in rations): 1.65 kg/day
- Gain to Feed Ratio ([1]; 9 weeks, monensin 200 mg/animal or 1% THYM in rations, M & T vs C p = 0.07): 0.38 kg/kg
- blood urea nitrogen (BUN) level ([1]; feed trial, FIG. 6): significantly lower
- inhibition at 10 µM (bovine rumen microbes; THYM 0.4% (of DM), vs paired control, p < 0.05): 68%
- Methane Production, Experiment AVG (bovine rumen microbes; THYM 0.4%, N = 3 or 4): 11152 ppm
